Measurements reported in PubChem BioAssay (NCI).
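Briefly, cells in 96-well plates were exposed to five compound concentrations for 48 h, and endpoints were estimated by linear interpolation. The concentration for full growth arrest is given as TGI.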

Assays:
Assay in all cases: DTP human tumour cell line panel, 48 h
OVCAR-5 ovarian = system: OVCAR-5 ovarian
SK-OV-3 ovarian = system: SK-OV-3 ovarian
COLO 205 colon = system: COLO 205 colon
HT29 colon = system: HT29 colon
HOP-92 NSCLC = system: HOP-92 NSCLC
HL-60(TB) leukemia = system: HL-60(TB) leukemia
SNB-75 CNS = system: SNB-75 CNS
NCI-H226 lung = system: NCI-H226 lung
SN12C renal = system: SN12C renal
NCI/ADR-RES ovarian = system: NCI/ADR-RES ovarian
SW-620 colon = system: SW-620 colon
HCC-2998 colon = system: HCC-2998 colon
SK-MEL-28 melanoma = system: SK-MEL-28 melanoma
MALME-3M melanoma = system: MALME-3M melanoma
SR leukemia = system: SR leukemia
HCT-116 colon = system: HCT-116 colon
MDA-MB-231 breast = system: MDA-MB-231 breast
MCF7 breast = system: MCF7 breast
UACC-62 melanoma = system: UACC-62 melanoma
HCT-15 colon = system: HCT-15 colon
NCI-H23 lung = system: NCI-H23 lung
IGROV1 ovarian = system: IGROV1 ovarian
HOP-62 NSCLC = system: HOP-62 NSCLC
CAKI-1 renal = system: CAKI-1 renal
M14 melanoma = system: M14 melanoma
HS 578T breast = system: HS 578T breast
RXF 393 renal = system: RXF 393 renal
LOX IMVI melanoma = system: LOX IMVI melanoma
SNB-19 CNS = system: SNB-19 CNS
PC-3 prostate = system: PC-3 prostate
K-562 leukemia = system: K-562 leukemia
A498 renal = system: A498 renal
UO-31 renal = system: UO-31 renal
SF-539 CNS = system: SF-539 CNS
ACHN renal = system: ACHN renal
786-0 renal = system: 786-0 renal
EKVX NSCLC = system: EKVX NSCLC
SF-295 CNS = system: SF-295 CNS
A549 NSCLC = system: A549 NSCLC
T-47D breast = system: T-47D breast
OVCAR-8 ovarian = system: OVCAR-8 ovarian
RPMI-8226 leukemia = system: RPMI-8226 leukemia
CCRF-CEM leukemia = system: CCRF-CEM leukemia
U251 CNS = system: U251 CNS
OVCAR-3 ovarian = system: OVCAR-3 ovarian
SK-MEL-5 melanoma = system: SK-MEL-5 melanoma
NCI-H522 lung = system: NCI-H522 lung
TK-10 renal = system: TK-10 renal
NCI-H460 lung = system: NCI-H460 lung
DU-145 prostate = system: DU-145 prostate
BT-549 breast = system: BT-549 breast
SF-268 CNS = system: SF-268 CNS
UACC-257 melanoma = system: UACC-257 melanoma
SK-MEL-2 melanoma = system: SK-MEL-2 melanoma
MDA-MB-435 = system: MDA-MB-435
OVCAR-4 ovarian = system: OVCAR-4 ovarian
MDA-N = system: MDA-N
KM12 colon = system: KM12 colon

COc1ccc(/C=C/C(=O)c2cccc(C(=O)/C=C/c3ccc(OC)c(OC)c3)n2)cc1OC
TGI (OVCAR-5 ovarian): > 91.2 µM | TGI (SK-OV-3 ovarian): > 100 µM | TGI (COLO 205 colon): > 100 µM | TGI (HT29 colon): 31.6 µM | TGI (HOP-92 NSCLC): > 100 µM | TGI (HL-60(TB) leukemia): 92.2 µM | TGI (SNB-75 CNS): > 100 µM | TGI (NCI-H226 lung): > 100 µM | TGI (SN12C renal): 30.1 µM | TGI (NCI/ADR-RES ovarian): > 86.8 µM | TGI (SW-620 colon): 15.9 µM | TGI (HCC-2998 colon): > 100 µM | TGI (SK-MEL-28 melanoma): 45 µM | TGI (MALME-3M melanoma): 70.5 µM | TGI (SR leukemia): > 25.9 µM | TGI (HCT-116 colon): 27.6 µM | TGI (MDA-MB-231 breast): 70.6 µM | TGI (MCF7 breast): > 100 µM | TGI (UACC-62 melanoma): > 57.4 µM | TGI (HCT-15 colon): 55 µM | TGI (NCI-H23 lung): > 100 µM | TGI (IGROV1 ovarian): > 95.5 µM | TGI (HOP-62 NSCLC): > 100 µM | TGI (CAKI-1 renal): > 100 µM | TGI (M14 melanoma): > 79.8 µM | TGI (HS 578T breast): > 95.5 µM | TGI (RXF 393 renal): > 86.1 µM | TGI (LOX IMVI melanoma): 10.6 µM | TGI (SNB-19 CNS): 99.1 µM | TGI (PC-3 prostate): > 100 µM | TGI (K-562 leukemia): > 100 µM | TGI (A498 renal): > 100 µM | TGI (UO-31 renal): 43.4 µM | TGI (SF-539 CNS): 38.4 µM | TGI (ACHN renal): > 100 µM | TGI (786-0 renal): 27.5 µM | TGI (EKVX NSCLC): > 100 µM | TGI (SF-295 CNS): > 100 µM | TGI (A549 NSCLC): > 100 µM | TGI (T-47D breast): > 100 µM | TGI (OVCAR-8 ovarian): 18.3 µM | TGI (RPMI-8226 leukemia): > 22.6 µM | TGI (CCRF-CEM leukemia): 6.29 µM | TGI (U251 CNS): > 55.7 µM | TGI (OVCAR-3 ovarian): > 100 µM | TGI (SK-MEL-5 melanoma): > 100 µM | TGI (NCI-H522 lung): 23.1 µM | TGI (TK-10 renal): > 100 µM | TGI (NCI-H460 lung): > 100 µM | TGI (DU-145 prostate): > 100 µM | TGI (BT-549 breast): 44.9 µM | TGI (SF-268 CNS): > 89.3 µM | TGI (UACC-257 melanoma): 99.4 µM | TGI (SK-MEL-2 melanoma): > 100 µM | TGI (MDA-MB-435): > 100 µM | TGI (OVCAR-4 ovarian): > 100 µM | TGI (MDA-N): 34.8 µM | TGI (KM12 colon): > 100 µM

O=c1cnn(C/C=C/CP(=O)(O)O)c(=O)[nH]1
TGI (OVCAR-5 ovarian): > 100 µM | TGI (COLO 205 colon): > 100 µM | TGI (HOP-92 NSCLC): > 100 µM | TGI (HL-60(TB) leukemia): > 100 µM | TGI (SNB-75 CNS): > 100 µM | TGI (NCI-H226 lung): > 100 µM | TGI (SN12C renal): > 100 µM | TGI (NCI/ADR-RES ovarian): > 100 µM | TGI (SW-620 colon): > 100 µM | TGI (HCC-2998 colon): > 100 µM | TGI (SK-MEL-28 melanoma): > 100 µM | TGI (MALME-3M melanoma): > 100 µM | TGI (SR leukemia): > 100 µM | TGI (MDA-MB-231 breast): > 100 µM | TGI (MCF7 breast): > 100 µM | TGI (HCT-15 colon): > 100 µM | TGI (NCI-H23 lung): > 100 µM | TGI (IGROV1 ovarian): > 100 µM | TGI (HOP-62 NSCLC): > 100 µM | TGI (CAKI-1 renal): > 100 µM | TGI (M14 melanoma): > 100 µM | TGI (HS 578T breast): > 100 µM | TGI (RXF 393 renal): > 100 µM | TGI (LOX IMVI melanoma): > 100 µM | TGI (SNB-19 CNS): > 100 µM | TGI (PC-3 prostate): > 100 µM | TGI (K-562 leukemia): > 100 µM | TGI (A498 renal): > 100 µM | TGI (UO-31 renal): > 100 µM | TGI (SF-539 CNS): > 100 µM | TGI (ACHN renal): > 100 µM | TGI (EKVX NSCLC): > 100 µM | TGI (A549 NSCLC): > 100 µM | TGI (T-47D breast): > 100 µM | TGI (OVCAR-8 ovarian): > 100 µM | TGI (RPMI-8226 leukemia): > 100 µM | TGI (U251 CNS): > 100 µM | TGI (OVCAR-3 ovarian): > 100 µM | TGI (SK-MEL-5 melanoma): > 100 µM | TGI (NCI-H522 lung): > 100 µM | TGI (TK-10 renal): > 100 µM | TGI (NCI-H460 lung): > 100 µM | TGI (DU-145 prostate): > 100 µM | TGI (BT-549 breast): > 100 µM | TGI (SF-268 CNS): > 100 µM | TGI (UACC-257 melanoma): > 100 µM | TGI (SK-MEL-2 melanoma): > 100 µM | TGI (MDA-MB-435): > 100 µM | TGI (MDA-N): > 100 µM | TGI (KM12 colon): > 100 µM
